Measured values from patent US9072729B2, “Method for treating fibrosis and cancer with imidazolium and imidazolinium compounds” (Agency for Science, Technology and Research, priority 2008, dated 2015).
Where two headings read alike, the source gives them in different places.

Tests used:
Assay type in all cases: cell-based, rat
HSC-T6 cells [1] = assay: Cellular ROS determination (DCF labeling); settings: EGCG 25 μM, NAC 1 mM, 48 h
Experimental: FIG. 2. (a) DBZIM and (b) TDBZIM attenuated cellular ROS level. HSC T6 cells were incubated with DBZIM (10, 50, 100 and 300 μM), TDBZIM (10, 50 and 100 μM), NAC (1 mM) and EGCG (25 μM) for 48 h before assaying for cellular ROS levels. The data were presented as relative values after normalizing against a vehicle control. The data were presented as mean and SEM, N=6, *^bP<0.01, *^cP<0.005, and *^dP<0.0005 when compared to the vehicle, control.
The ROS level of treated HSC-T6 cells was determined using the dichlorofluorescein (DCF) labeling method (Molecular Probes Inc., OR, USA). Cultured cells were harvested by trypsinization, and resuspended in phenol red-free DMEM (Invitrogen). Cells were then incubated with 10 μg/ml of 2′,7′-dichloro-fluorescein diacetate (DCFH-DA) in DMEM for 15 min before resuspension in DMEM for assaying. Cell solution was dispensed into a black-wall 96-well pate in triplicate for fluorescence readout at Ex=485 nm and Em=530 nm with a Tecan Safire II plate reader. The fluorescence unit was normalized against viable cell numbers, which were determined using 3-(4,5-dimethylthiazol-2-yl)-2,5-diphenyl tetrazolium bromide (MTT assay, Promega, Wis., USA). Cellular ROS level was expressed relative to the control sample.

HSC-T6 cells [2] = assay: Glutathione (GSH) and GSSG assays
Experimental: FIG. 3. […] (c) DBZIM and (d) TDBZIM both suppressed cellular GSSG (the oxidation product of GSH). (e) DBZIM and (f) TDBZIM both enhanced the GSH/GSSG ratio. HSC-T6 cells were incubated with compounds of various concentrations for 48 h, and assayed for the total GSH and GSSG amounts. The GSH/GSSG ratio was calculated as (GSH−GSSG)/GSSG. The GSH and GSSG amounts were normalized against the total protein. Note that DBZIM was dissolved in DMSO, and TDBZIM was dissolved in H2O. The data were presented as mean and SEM, N=6, *^aP<0.05, *^bP<0.01, *^cP<0.005, and *^dP<0.0005, when compared to the vehicle control.
Total cellular GSH and GSSG levels were determined by using assay kits from Cayman Chemical (Ann Arbor, Mich., USA) following the manufacturer's instructions. Briefly, HSC-T6 cells treated with DBZIM, TDBZIM, NAC, or EGCG were scalped and homogenized in phosphate buffered saline (PBS) by sonication at 60% frequency for 30 s, and the supernatant was collected after centrifugation at 16,000×g for 10 min at 4° C. Protein content of the samples was determined by bicinchonicic acid (BCA) assay.
For GSH assays, the protein sample was deproteinated by metaphosphoric acid (Aldrich, Catalog No. 23927-5), and the pH was adjusted by triethanolamine (Aldrich, Catalog No. T5830-0) according to the manual. The sample was ready for assaying total GSH including both the reduced and oxidized forms. Quantification of GSSG, exclusive of GSH, was performed by first derivatizing GSH with 2-vinylpyridine and assaying separately. Colorimetric signal was recorded at 405 nm with a Tecan Safire II plate reader. The levels of GSH or GSSG were determined as nmol/μg protein.

GPx = assay: Glutathione peroxidase (GPx) activity assay in treated cells
Experimental: (§1) FIG. 4. Effect of DBZIM and TDBZIM on GPx, CAT, SOD and GST. DBZIM affected (a) GPx activity and (c) CAT activity in a dosage-dependent manner. TDBZIM suppressed (b) GPx activity and (d) CAT activity. (e) DBZIM and (f) TDBZIM had little effect on SOD activity. (g) DBZIM induced GST activity. HSC T6 cells were treated with compounds of various concentrations for 48 h, and homogenized by sonication (60% frequency for 30 s) in PBS (pH 7.4, 1 mM of EDTA) for GPx, GST and CAT assays, or in 20 mM of HEPES buffer containing 1 mM of EGTA, 210 mM of mannitol and 70 mM of sucrose (pH 7.2) for SOD assay. Enzyme activity was normalized against total protein. DBZIM was dissolved in DMSO, and TDBZIM was dissolved in H2O. The data were presented as mean and SEM, N=6, *^aP<0.05, *^bP<0.01, *^cP<0.005, and *^dP<0.0005, when compared to the vehicle control.
(§2) Activity levels of three anti-oxidant enzymes, GPx, CAT and SOD, were determined using assay kits from Cayman Chemical. To assay GPx and CAT activities, protein samples were harvested in ice-cold PBS containing 1 mM of EDTA. To assay SOD activity, protein samples were prepared in 20 mM of N-(2-hydroxyethyl)-piperazine-N′-2-ethanesulfonic acid (HEPES) buffer containing 1 mM of ethylene glycol-bis(2-aminoethylether)-N,N,N′,N′-tetraacetic acid (EGTA), 210 mM of mannitol and 70 mM of sucrose. Protein content was determined by BCA assay.
GPx activity was indirectly measured by a coupled reaction with GSH reductase. Oxidized GSH, produced upon reduction of H2O2 by GPx, is recycled to its reduced state by glutathione reductase (GR) and nicotinamide adenine dinucleotide phosphate (NADPH). The oxidation of NAPDH is proportional to the GPx activity, and can be measured as a decrease in absorbance at 340 nm. GPx activity was expressed as nmol/min/mg protein.

CAT = assay: Catalase (CAT) activity assay in treated cells
Experimental: FIG. 4. […] Enzyme activity was normalized against total protein. DBZIM was dissolved in DMSO, and TDBZIM was dissolved in H2O. The data were presented as mean and SEM, N=6, *^aP<0.05, *^bP<0.01, *^cP<0.005, and *^dP<0.0005, when compared to the vehicle control.
Activity levels of three anti-oxidant enzymes, GPx, CAT and SOD, were determined using assay kits from Cayman Chemical. To assay GPx and CAT activities, protein samples were harvested in ice-cold PBS containing 1 mM of EDTA. […] Protein content was determined by BCA assay.
CAT activity was determined based on reaction of the enzyme with methanol in the presence of H2O2. The formaldehyde produced was measured spectrophotometrically at 540 nm using Purpald as the chromogen. CAT activity was expressed as nmol/min/mg protein.

SOD = assay: Superoxide dismutase (SOD) activity assay in treated cells
Experimental: as §1, §2
Total SOD, including all three types of SOD (Cu/Zn-, Mn- and Fe-SOD), was quantified using a tetrazolium salt to detect superoxide radicals generated by xanthine oxidase and hyposanthine. […] SOD activity was expressed as U/mg protein.

GST = assay: Glutathione S-transferase (GST) assay in treated cells; settings: EGCG, NAC
Experimental: as §1
The activity of phase II anti-oxidant enzyme, GST, was assayed using a kit from Cayman Chemical. Protein samples were harvested in PBS buffer containing 1 mM of EDTA, and the protein concentration was determined by BCA assay. Total GST (cytosolic and microsomal) activity was assayed by measuring the conjugation of 1-chloro-2,4-dinitobenzene (CDNB) with reduced GSH, and monitored by an increase in absorbance at 340 nm. GST activity was expressed as nmol/min/mg protein.

HSC T6 cells = assay: MTS based proliferation assay (cytotoxicity) on cultured HSC-T6 cells; settings: read-out: IC50 (toxicity on T6 cells)
Experimental: FIG. 1. Cytotoxicity of (a) DBZIM and (b) TDBZIM. […] The signal was normalized against a vehicle control treatment (0 μM of compound). The data were obtained from four independent experiments, and presented as mean and standard error or mean (SEM), *^aP<0.05, *^bP<0.01 and *^cP<0.005.
Firstly we assessed the cytotoxicity of DBZIM and TDBZIM on cultured HSC-T6 cells using a 3-(4,5-dimethylthiazol-2-yl)-5-(3-carboxymethoxyphenyl)-2-(4-sulfophenyl)-2H-tetrazolium (MTS) based proliferation assay kit (Promega, Wis., USA). […]

col1a1 = assay: Real-time RT-PCR of col1a1 mRNA in HSC T6 cells; settings: 48 h; DBIM 1 mM, DPIM 2 mM, TMPHIM 50 μM, DPPHIM 10 μM
Experimental: (§3) FIG. 6. (a) DBZIM and (b) TDBZIM suppressed the mRNA expression of HSC activation markers (GFAP and SMAA) and fibrotic endpoints (col1a1 and fibronectin) in a dosage-dependent manner. […] The ΔΔCt method was used for relative quantification with vehicle control sample being the calibrator. The data were presented as mean and SEM, N=6, *^aP<0.05, *^bP<0.01, *^cP<0.005, and *^dP<0.0005, when compared to the vehicle control. FIG. 7. DBZIM (100 μM) and TDBZIM (100 μM) suppressed (a) GFAP, (b) SMAA, (c) col1a1 and (d) fibronectin mRNA expression in a time-dependent manner. HSC T6 cells were treated with DBZIM and TDBZIM, and assayed after 8, 24 and 48 h. […] FIG. 14. […] (50 μM), […] (50 μM), […] (10 μM) and DBZBIM (100 μM) were dissolved in DMSO with a final DMSO concentration of 0.2% (v/v). DPIM (2 mM), EGCG (25 μM) and DBZIM (100 μM) were dissolved in H2O. β-actin was used as the normalization gene; its expression was constant under the experimental conditions. Relative quantification was normalized against the respective vehicle control. The data were presented as mean and SEM, N=6, *^aP<0.05, *^cP<0.005, and *^dP<0.0005, when compared to the vehicle control. Total RNA was isolated using NucleoSpin RNAII isolation kit ([…], Germany), and quantified by ND-100 spectrophotometer (Nanodrop Technologies, DE, USA). The details of real-time RT-PCR were reported elsewhere (Zhang et al. 2006). Briefly, it was a two-step real-time RT-PCR using Taqman chemistry. Total RNA was first reverse transcribed to cDNA, and real-time PCR was run and detected in ABI 7500 Fast Real-Time PCR System (Applied Biosystems, CA, USA). Primers and probes for rat GFAP, SMAA, collagen Ia1, fibronectin, TGF-β1, TGF-β receptor I (TGFβ RI) and IL-6 were ordered from Taqman's assay-on-demand database. Rat β-actin was used as normalization gene, and its expression level was constant (CT difference was <±0.5) throughout the experimental settings in this study. Relative quantification of target mRNA was calculated using comparative threshold cycle method (ΔΔCT) as described in User Bulletin #2 (ABI Prism 7700 Sequence Detection System). Relative quantification was given by 2^-ΔΔCT to express the up-regulation or down regulation of the target gene under the treatments compared to the control.

GFAP = assay: Real-time RT-PCR of GFAP mRNA in HSC T6 cells; settings: 48 h; DPIM 2 mM, AMIM 50 μM, TMPHIM 50 μM, DBZBIM 100 μM
Experimental: as §3

SMAA = assay: Real-time RT-PCR of SMAA mRNA in HSC T6 cells; settings: 48 h; DBIM 1 mM, DPIM 2 mM, AMIM 50 μM, TMPHIM 50 μM
Experimental: as §3

fibronectin = assay: Real-time RT-PCR of fibronectin mRNA in HSC T6 cells; settings: 48 h; DPIM 2 mM, TMPHIM 50 μM, DBZIM 100 μM
Experimental: as §3

[3] = Rattus norvegicus, HSC-T6, HSC T6 cells

CC(=O)N[C@@H](CS)C(=O)O [NAC, N-acetyl-L-cysteine, reference compound]
attenuation of cellular ROS level (references) (HSC-T6 cells [1]): did not show apparent inhibition
reduction of GSSG (references) (HSC-T6 cells [2]; EGCG 25 μM, NAC 5 mM, 48 h): had no effect
increase in GSH/GSSG ratio (references) (HSC-T6 cells [2]; NAC 5 mM, EGCG 25 μM, 48 h): no change
induction of total GSH (references) (HSC-T6 cells [2]; NAC 5 mM, EGCG 25 μM, 48 h): did not show any effect
attenuation of GPx activity (references) (GPx; EGCG 25 μM, NAC 5 mM): did not show much effect
suppression of CAT activity (references) (CAT; EGCG, NAC (FIG. 4c)): 35%
effect on SOD activity (SOD; HSC T6 cells, 48 h): did not show much effect
effect on GST activity (references) (GST): did not have much affect

C[S+](C)[O-] [DMSO, dimethylsulfoxide]
GSH/GSSG ratio, of the control (HSC-T6 cells [2]; 0.2% (v/v) DMSO vs untreated): 17%
GSSG amount, of the control (HSC-T6 cells [2]; 0.2% (v/v) DMSO vs untreated): 4.4 fold
total cellular GSH level, of the control (HSC-T6 cells [2]; 0.2% (v/v) DMSO vs untreated): 74%
GPx activity, of the control (GPx; 0.2% (v/v) DMSO vs untreated): 2.62 times
CAT activity, of the control (CAT; 0.2% (v/v) DMSO vs untreated): 1.7 fold
increase of SOD activity (SOD; 0.2% (v/v) DMSO vs untreated, not statistically significant): 10%

1,3-bis(2,6-diisopropyl-phenyl)-imidazolinium chloride [DPPHIM]
IC50 (HSC T6 cells; HSC T6 cells): 34 µM
suppression of col1a1 mRNA (col1a1): 47%

F[B-](F)(F)F.c1c[n+](C23CC4CC(CC(C4)C2)C3)cn1C12CC3CC(CC(C3)C1)C2 [AMIM, 1,3-bis(1-adamantyl)imidazolium tetrafluoroborate]
IC50 (HSC T6 cells; [3]): 166 µM
suppression of GFAP mRNA (GFAP): 69%
suppression of SMAA mRNA (SMAA): 23%

1,3-di-tert-butylimidazoliniumtetrafluoroborate [DBIM]
IC50 (HSC T6 cells; HSC T6 cells): 2000 to 3000 µM
suppression of SMAA mRNA (SMAA): 49%
suppression of col1a1 mRNA (col1a1): 58%

[Br-].c1ccc(Cn2c[n+](Cc3ccccc3)c3ccccc32)cc1 [DBZBIM, 1,3-bisbenzyl-benzimidazolium bromide]
IC50 (HSC T6 cells; [3]): 310 µM
suppression of GFAP mRNA (GFAP): 50%

1,3-bis(2,4,6-trimethylphenyl)-imidazolinium chloride [TMPHIM]
IC50 (HSC T6 cells; HSC T6 cells): 110 µM
suppression of GFAP mRNA (GFAP): 66%
suppression of SMAA mRNA (SMAA): 49%
suppression of col1a1 mRNA (col1a1): 62%
suppression of fibronectin mRNA (fibronectin): 29%
